Experiments:
SARS-CoV-2 [1] = assay: microbe, parasite or virus in culture; type: functional, organism-based, Chlorocebus sabaeus, Vero C1008; settings: Severe acute respiratory syndrome coronavirus 2, Vero C1008, 48 h
SARS-CoV-2 [2] = assay: microbe, parasite or virus in culture; settings: Severe acute respiratory syndrome coronavirus 2, Vero C1008, 48 h

Compound | IC50 (SARS-CoV-2 [1]; read-out: IC50) [µM] | IC50 (SARS-CoV-2 [1]; read-out: pIC50 (converted)) [µM] | IC50 (SARS-CoV-2 [2]) [µM] | IC50 (SARS-CoV-2 [2]; read-out: pIC50 (converted)) [µM]
NCCCCCN | > 20 | > 20 |  | 
CN1c2c([nH]c(N)nc2=O)NCC1CNc1ccc(C(=O)N[C@@H](CCC(=O)O)C(=O)O)cc1 (some centres not stated) | > 20 | > 20 |  | 
CCOc1nc(N)nc2c1ncn2[C@@H]1O[C@@H]2CO[P@](=O)(OC(C)C)O[C@H]2[C@@]1(C)F | > 50.1 | > 50.1 | > 20 | > 20
Cc1nc2ccc(Oc3ccccc3)cc2c2c1CCN2CCc1ccccc1 | ~4.9 | ~4.9 | > 20 | > 20
CC(C)CN(C[C@H](O)[C@H](Cc1ccccc1)NC(=O)O[C@H]1CO[C@@H]2OCC[C@@H]21)S(=O)(=O)c1ccc(N)cc1 | > 20 | > 20 | > 20 | > 20
Nc1ccn([C@@H]2S[C@H](CO)[C@@H](O)[C@H]2F)c(=O)n1 | > 20 | > 20 | > 20 | > 20
CCOc1ccc(-n2c([C@@H](C)N(Cc3cccnc3)C(=O)Cc3ccc(OC(F)(F)F)cc3)nc3ncccc3c2=O)cc1 (racemic) | > 20 | > 20 | > 20 | > 20
CN1CC[C@H](c2c(O)cc(O)c3c(=O)cc(-c4ccccc4Cl)oc23)[C@H](O)C1 [ALVOCIDIB] | > 10 | > 10 | > 20 | > 20
COc1nc(N)nc2c1ncn2[C@@H]1O[C@H](COP(=O)(N[C@@H](C)C(=O)OCC(C)(C)C)Oc2cccc3ccccc23)[C@@H](O)[C@@]1(C)O (some centres not stated) [BMS-986094] | > 20 | > 20 | > 20 | > 20
Cc1c(-c2ccc(-c3ccccc3F)cc2)nc2ccc(F)cc2c1C(=O)O [BREQUINAR] | > 20 | > 20 | > 20 | > 20
CN(C)C(=O)COC(=O)Cc1ccc(OC(=O)c2ccc(NC(=N)N)cc2)cc1 [CAMOSTAT] | > 100 | > 100 | > 20 | > 20
CCN(CC)CCOc1ccc(C(=C(Cl)c2ccccc2)c2ccccc2)cc1 [CLOMIPHENE] | > 20 | > 20 | > 20 | > 20
COc1cc2c(c(OC)c1OC)-c1ccc(OC)c(=O)cc1[C@@H](NC(C)=O)CC2 [COLCHICINE] | > 100 | > 100 | > 100 | > 100
Nc1ccn([C@@H]2O[C@H](CO)[C@@H](O)[C@@H]2O)c(=O)n1 [CYTARABINE] | > 20 | > 20 | > 50.1 | > 50.1
Cc1nc(OCCCCCN2CCCCC2)cc(-c2ccc(F)cc2)n1 [ENECADIN] | 21.9 | 21.9 | 1.74 | 1.74
COc1cccc2c1C(=O)c1c(O)c3c(c(O)c1C2=O)C[C@@](O)(C(=O)CO)C[C@@H]3O[C@H]1C[C@H](N)[C@@H](O)[C@H](C)O1 [EPIRUBICIN] | > 100 | > 100 |  | 
CN1CC(=O)N=C1NC(=O)Nc1cccc(Cl)c1 [FENOBAM ANHYDROUS] | > 25.1 | > 25.1 | > 20 | > 20
c1cc(OCCCN2CCCCC2)ccc1CN1CCCCC1 [JNJ-5207852] | > 20 | > 20 | > 20 | > 20
CN(C[C@@H]1COCCO1)S(=O)(=O)Nc1ccc2ccc3ncc(-c4cnn(C)c4)cc3c(=O)c2c1 [MK-2461] | > 20 | > 20 | > 20 | > 20
CC(C)C(=O)OC[C@H]1O[C@@H](n2cc/c(=N\O)[nH]c2=O)[C@H](O)[C@@H]1O [MOLNUPIRAVIR] | ~4.56 | ~4.57 | 14.1 | 14.1
CC(COc1ccccc1)N(CCCl)Cc1ccccc1 (configuration not stated) [PHENOXYBENZAMINE] | > 100 | > 100 | 20 | 20

Compound | IC50 (SARS-CoV-2 [1]; read-out: IC50) [µM] | IC50 (SARS-CoV-2 [1]; read-out: pIC50 (converted)) [µM] | IC50 (SARS-CoV-2 [2]) [µM] | IC50 (SARS-CoV-2 [2]; read-out: pIC50 (converted)) [µM]
CC[C@@H](C(=O)[C@@H](C)[C@@H](O)[C@H](C)[C@@H]1O[C@@H]([C@@H](CC)C(=O)O)CC[C@@H]1C)[C@H]1O[C@]2(C=C[C@@H](O)[C@]3(CC[C@@](C)([C@H]4CC[C@](O)(CC)[C@H](C)O4)O3)O2)[C@H](C)C[C@@H]1C [SALINOMYCIN] | 1.29 | 1.29 | > 20 | > 20
Nc1ccn([C@@H]2S[C@H](CO)[C@@H](O)[C@@H]2O)c(=O)n1 [THIARABINE] | ~12.3 | ~12.3 | > 20 | > 20
COC(=O)[C@@H]1[C@H]2C[C@H]3c4[nH]c5ccccc5c4CCN3C[C@@H]2CC[C@@H]1O [YOHIMBINE] |  |  | > 20 | > 20
O=C(CC(c1ccccc1)c1ccccc1)N1CCN(C(c2ccccc2)c2ccccc2)CC1 [Z160] |  |  | > 20 | > 20
COc1cc(N)c(Cl)cc1C(=O)NC1CN2CCC1CC2 (configuration not stated) [ZACOPRIDE] |  |  | > 20 | > 20
COc1cc(C(=O)NS(=O)(=O)c2ccccc2C)ccc1Cc1cn(C)c2ccc(NC(=O)OC3CCCC3)cc12 [ZAFIRLUKAST] |  |  | > 20 | > 20
Nc1ccn([C@H]2CC[C@@H](CO)O2)c(=O)n1 [ZALCITABINE] |  |  | > 20 | > 20
CC1(CN2CCC(n3c(=O)[nH]c4ccccc43)CC2)OCc2ccccc2-n2cccc21 (configuration not stated) [ZALDARIDE] |  |  | > 20 | > 20
Cc1ncc(-c2csc(N=C(N)N)n2)[nH]1 [ZALTIDINE] |  |  | > 20 | > 20
CC(=O)N[C@H]1[C@H]([C@H](O)[C@H](O)CO)OC(C(=O)O)=C[C@@H]1NC(=N)N [ZANAMIVIR] |  |  | > 20 | > 20
C#C[C@]1(O)CC[C@H]2[C@@H]3CC[C@H]4Cc5nn(S(C)(=O)=O)cc5C[C@]4(C)[C@H]3CC[C@@]21C [ZANOTERONE] |  |  | > 20 | > 20
C=CC(=O)N1CCC([C@@H]2CCNc3c(C(N)=O)c(-c4ccc(Oc5ccccc5)cc4)nn32)CC1 [ZANUBRUTINIB] |  |  | > 20 | > 20
CCCOc1ccccc1-c1nc2[nH]nnc2c(=O)[nH]1 [ZAPRINAST] |  |  | > 20 | > 20
COc1cc(-c2ccc(=O)[nH]n2)ccc1OC(F)F [ZARDAVERINE] |  |  | > 20 | > 20
COc1ccc(CCN(C)CCCN2CCc3cc(OC)c(OC)cc3CC2=O)cc1OC [ZATEBRADINE] |  |  | > 20 | > 20
C[C@H](NC(=O)Cn1nnc2ccccc2c1=O)c1ccc(OC(F)(F)F)cc1 [ZELATRIAZIN] |  |  | > 20 | > 20
Cc1ccc(OCC(O)C(C)NC(C)C)c2c1CCC2 (configuration not stated) [ZENIDOLOL] |  |  | > 20 | > 20
C[C@H]1CCC[C@H](O)CCCCCc2cc(O)cc(O)c2C(=O)O1 [ZERANOL] |  |  | > 20 | > 20
Cc1cn([C@H]2C[C@H](N=[N+]=[N-])[C@@H](CO)O2)c(=O)[nH]c1=O [ZIDOVUDINE] |  |  | > 100 | > 100
CC(c1cc2ccccc2s1)N(O)C(N)=O (configuration not stated) [ZILEUTON] |  |  | > 20 | > 20
CC[C@@H]1[C@H](F)C(=O)N[C@@H]1COc1nccc2cc(C(N)=O)c(OC)cc12 [ZIMLOVISERTIB] |  |  | > 20 | > 20

Compound | IC50 (SARS-CoV-2 [1]; read-out: IC50) [µM] | IC50 (SARS-CoV-2 [1]; read-out: pIC50 (converted)) [µM] | IC50 (SARS-CoV-2 [2]) [µM] | IC50 (SARS-CoV-2 [2]; read-out: pIC50 (converted)) [µM]
CC(C)(Cc1ccccc1)NCC(O)c1ccc(O)c(NS(C)(=O)=O)c1 (configuration not stated) [ZINTEROL] |  |  | > 20 | > 20
CC(C)S(=O)(=O)n1c(N)nc2ccc(/C(=N\O)c3ccccc3)cc21 [ZINVIROXIME] |  |  | > 20 | > 20
O=C1Cc2cc(CCN3CCN(c4nsc5ccccc45)CC3)c(Cl)cc2N1 [ZIPRASIDONE] |  |  | > 20 | > 20
Cc1ccc2nc(N3CCS(=O)(=O)c4ccccc4C3)nc(NCC3(N)COC3)c2c1 [ZIRESOVIR] |  |  | > 20 | > 20
C[C@H](CSC(=O)c1ccccc1)C(=O)N1C[C@@H](Sc2ccccc2)C[C@H]1C(=O)O [ZOFENOPRIL] |  |  | > 20 | > 20
CS(=O)(=O)c1ccc(-c2cn3ccccc3n2)cc1 [ZOLIMIDINE] |  |  | > 20 | > 20
CC(C(=O)O)c1ccc(Oc2nccs2)cc1 (configuration not stated) [ZOLIPROFEN] |  |  | > 20 | > 20
CN(C)CCc1c[nH]c2ccc(C[C@H]3COC(=O)N3)cc12 [ZOLMITRIPTAN] |  |  | > 20 | > 20
Cc1ccc(-c2nc3ccc(C)cn3c2CC(=O)N(C)C)cc1 [ZOLPIDEM] |  |  | > 20 | > 20
Cc1cc(CC(=O)O)n(C)c1C(=O)c1ccc(Cl)cc1 [ZOMEPIRAC] |  |  | > 20 | > 20
NS(=O)(=O)Cc1noc2ccccc12 [ZONISAMIDE] |  |  | > 20 | > 20
CN1CCN(C(=O)OC2c3nccnc3C(=O)N2c2ccc(Cl)cn2)CC1 (configuration not stated) [ZOPICLONE] |  |  | > 20 | > 20
O[C@@H](COc1cccc2ncccc12)CN1CCN([C@@H]2c3ccccc3[C@@H]3[C@H](c4ccccc42)C3(F)F)CC1 [ZOSUQUIDAR] |  |  | > 20 | > 20
COc1cc2c(c(OC)n1)[C@]1(O)[C@H](O)[C@H](CN(C)C)[C@@H](c3ccccc3)[C@]1(c1ccc(C#N)cc1)O2 [ZOTATIFIN] |  |  | > 20 | > 20
FC(F)c1nc2ccccc2n1-c1nc(N2CCOCC2)nc(N2CCOCC2)n1 [ZSTK-474] |  |  | > 20 | > 20
Cc1ccc(O)cc1 [p-CRESOL] |  |  | > 20 | > 20
Cn1nnc2ccc(C(c3ccc(Cl)cc3)n3cncn3)cc21 (stereo not drawn) [rac-VOROZOLE] |  |  | > 20 | > 20
C[C@@H](NCCc1ccc(O)cc1)[C@@H](O)c1ccc(O)cc1 [rel-RITODRINE] |  |  | > 20 | > 20
enfuvirtide |  |  | > 20 | > 20
